The values below come from PubChem BioAssay (NCI).

Some test systems named below: TK-10 renal; A498 renal; SK-OV-3 ovarian; CCRF-CEM leukemia; SF-295 CNS; HOP-62 NSCLC; CAKI-1 renal; EKVX NSCLC; SN12C renal; DU-145 prostate.
Common to all, as to test: growth of human tumour cells (NCI), 48 h

Values joined by “and” are separate entries in the source; they are usually repeats but may differ in a detail not shown here. Identical values can stand only once.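 Where inhibition never reached the appropriate level, the endpoint shown equals the highest concentration tested. Otherwise, values were interpolated linearly from a five-concentration, 48-hour dose response in 96-well plates. GI50 marks 50% less growth. At the TGI there is no net growth.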

For the compound `N#CCCN(CCC#N)C(=O)c1cccc(C(=O)N(CCC#N)CCC#N)c1`, the TGI in the assay on TK-10 renal, in the assay with A498 renal, with SK-OV-3 ovarian, with CCRF-CEM leukemia, in the assay on SF-295 CNS and in the assay on HOP-62 NSCLC was greater than 100 µM each time. Besides, the results for the TGI in the assay with CAKI-1 renal, with EKVX NSCLC and with SN12C renal were greater than 100 µM, greater than 63.9 µM and greater than 58.3 µM, respectively.
With `O=C(CCN1CCOCC1)Nc1ccc(F)cc1F`, the TGI with TK-10 renal, in the assay with A498 renal, with DU-145 prostate, with SK-OV-3 ovarian, with SF-295 CNS and in the assay on HOP-62 NSCLC was greater than 100 µM each time. For the same compound, the TGI in the assay on CAKI-1 renal, with EKVX NSCLC and in the assay with SN12C renal was greater than 100 µM each time.
As to `COc1ccc2c(c1)[C@]1(C[C@H]1c1ccc3c(/C=C/c4ccc(CN5C[C@@H](C)O[C@@H](C)C5)cc4)n[nH]c3c1)C(=O)N2`, the GI50 in the assay on TK-10 renal is 11.8 µM; in the assay on A498 renal it was 2.34 µM; with DU-145 prostate, 4.91 µM; with SK-OV-3 ovarian, 15.1 µM; with SF-295 CNS, 1.79 µM; in the assay with HOP-62 NSCLC it was 8.81 µM. Besides, the GI50 was 6.01 µM in the assay with EKVX NSCLC and 5.15 µM in the assay with SN12C renal. The TGI in the assay on TK-10 renal is greater than 61.3 µM; with A498 renal it was 30.6 µM; in the assay with DU-145 prostate it was 45.6 µM; in the assay on SK-OV-3 ovarian, greater than 100 µM; in the assay on SF-295 CNS it was greater than 100 µM; with HOP-62 NSCLC it was greater than 100 µM. In addition, the TGI in the assay on EKVX NSCLC is greater than 100 µM; in the assay with SN12C renal it was greater than 56.7 µM.
For `CN1CCN(CCCOc2cccc3nc(Nc4ccc(Cl)c(F)c4)ccc23)CC1`, the GI50 is 1.81 µM in the assay on TK-10 renal; 2.39 µM in the assay on A498 renal; 1.75 µM in the assay on DU-145 prostate; 1.79 µM in the assay with SK-OV-3 ovarian; 1.79 µM in the assay on SF-295 CNS; 1.45 µM in the assay on HOP-62 NSCLC. For the same compound, the values for the GI50 with CAKI-1 renal, in the assay with EKVX NSCLC and with SN12C renal were 2.53 µM, 1.89 µM and 4.16 µM, respectively. Also, the TGI stood at 3.28 µM with TK-10 renal; 8.28 µM in the assay on A498 renal; 3.19 µM with DU-145 prostate; 3.44 µM in the assay with SK-OV-3 ovarian; 3.46 µM with SF-295 CNS; 3.26 µM in the assay with HOP-62 NSCLC. For the same compound, the TGI in the assay with CAKI-1 renal is 8.47 µM; with EKVX NSCLC, 3.86 µM; in the assay with SN12C renal, 16 µM.
As for `Cc1cc(N2CCN(C)CC2)nc(NCc2cc(Nc3ccnc4cc(Cl)ccc34)ccc2F)n1`, the GI50 with TK-10 renal was 2.25 µM; in the assay on A498 renal it was 1.52 µM; in the assay with DU-145 prostate, 2.52 µM; in the assay with SK-OV-3 ovarian, 2.64 µM; in the assay with SF-295 CNS, 1.68 µM; in the assay on HOP-62 NSCLC, 1.63 µM. In addition, the GI50 in the assay on CAKI-1 renal is 2.68 µM; in the assay on EKVX NSCLC it was 2.5 µM; with SN12C renal, 2.3 µM. Moreover, the TGI with TK-10 renal was 5.82 µM; in the assay with A498 renal it was 4.03 µM; in the assay with DU-145 prostate it was greater than 100 µM; in the assay on SK-OV-3 ovarian, 6.27 µM; with SF-295 CNS, 3.24 µM; in the assay on HOP-62 NSCLC it was 3.83 µM. Moreover, the TGI in the assay with CAKI-1 renal is 8.61 µM; with EKVX NSCLC, greater than 100 µM; with SN12C renal, 5.62 µM.
As for `CC1(C)OC(=O)[C@@](C)([C@H](O)c2ccccc2)O1`, the TGI with TK-10 renal, with A498 renal, with SK-OV-3 ovarian, in the assay with CCRF-CEM leukemia, with SF-295 CNS and in the assay with HOP-62 NSCLC was greater than 100 µM each time. The TGI in the assay with CAKI-1 renal, in the assay with EKVX NSCLC and with SN12C renal was greater than 100 µM throughout.
As for `Cc1ccc(NC(=O)CC/C(CC(=O)C(C)(C)C)=N/NC(=O)C(N)=O)cc1C`, the TGI in the assay with TK-10 renal, with A498 renal, in the assay with SK-OV-3 ovarian, in the assay with CCRF-CEM leukemia, with SF-295 CNS and with HOP-62 NSCLC was greater than 100 µM in each case. Further, the TGI with CAKI-1 renal, in the assay on EKVX NSCLC and in the assay on SN12C renal was greater than 100 µM throughout.
In the case of `COc1cc2ccccc2c2cc([N+](=O)[O-])oc12`, the TGI with TK-10 renal is 5.44 µM; with A498 renal, 0.342 µM; in the assay with DU-145 prostate, 7.49 µM; in the assay on SK-OV-3 ovarian it was greater than 71.7 µM; in the assay on SF-295 CNS, 15.6 µM; in the assay with HOP-62 NSCLC, 32 µM. Moreover, the TGI in the assay on CAKI-1 renal is greater than 100 µM; in the assay with EKVX NSCLC it was 14.1 µM; with SN12C renal, greater than 48.7 µM.
Consider `COc1cc2c(c(OC)c1OC)C(=O)CC(c1cccc(NC(=O)c3ccc(Br)cc3)c1)O2` (stereo unspecified), for which the GI50 in the assay on TK-10 renal was 4.44 µM; in the assay with A498 renal, 1.55 µM; with DU-145 prostate it was 2.85 µM; with SK-OV-3 ovarian, 4.32 µM; in the assay with SF-295 CNS, 2.6 µM; in the assay on HOP-62 NSCLC, 2.89 µM. Besides, the GI50 is 2.25 µM in the assay on CAKI-1 renal, 2.5 µM with EKVX NSCLC and 3.06 µM in the assay on SN12C renal. Also, the TGI in the assay on TK-10 renal was greater than 100 µM; with A498 renal, 8.15 µM; in the assay on DU-145 prostate it was greater than 100 µM; in the assay with SK-OV-3 ovarian, greater than 100 µM; with SF-295 CNS, greater than 100 µM; in the assay with HOP-62 NSCLC it was greater than 100 µM. Also, the TGI in the assay on CAKI-1 renal, in the assay with EKVX NSCLC and with SN12C renal was greater than 100 µM each time.
Take `Nc1ncnc2c1ncn2C1OC(CSC(F)(F)F)C(O)C1O` (stereo unspecified): the TGI in the assay on TK-10 renal, in the assay with A498 renal, with SK-OV-3 ovarian, in the assay on CCRF-CEM leukemia, in the assay on SF-295 CNS and in the assay with HOP-62 NSCLC was greater than 100 µM in each case. Besides, the TGI in the assay with CAKI-1 renal, in the assay on EKVX NSCLC and in the assay with SN12C renal was greater than 100 µM in each case.
Take `NC(C/[N+]([O-])=N/O)C(=O)O` (stereo unspecified): the GI50 with TK-10 renal was > 66.2 µM and > 100 µM and 30.9 µM; in the assay with DU-145 prostate it was 173 µM; in the assay with SK-OV-3 ovarian, 58 µM and > 100 µM and 55.7 µM; in the assay with CCRF-CEM leukemia, > 29.3 µM and 11.3 µM; in the assay with SF-295 CNS, 6.24 µM; with HOP-62 NSCLC, 19.4 µM and 9.42 µM and 4.9 µM. For the same compound, the GI50 in the assay with CAKI-1 renal was 16.6 µM and 32.2 µM and 4.52 µM; in the assay with SN12C renal, 14.6 µM and > 100 µM and 10.5 µM. Besides, the TGI with TK-10 renal was greater than 459 µM; in the assay with DU-145 prostate it was greater than 500 µM; in the assay with SK-OV-3 ovarian it was > 100 µM and 300 µM; with CCRF-CEM leukemia, > 100 µM and 418 µM; in the assay on SF-295 CNS, greater than 500 µM; in the assay on HOP-62 NSCLC, > 100 µM and 92.7 µM. In addition, the TGI in the assay with CAKI-1 renal is > 100 µM and 102 µM; in the assay with EKVX NSCLC, > 100 µM and 371 µM; with SN12C renal it was greater than 464 µM.
